We go through two compounds from PMC8041784, “Preference of Proteomonas sulcata anion channelrhodopsin for NO3^− revealed using a pH electrode method” (Scientific Reports, 2021).

Experiment [1] has as its target T1, GtACR1 (Guillardia theta, UniProt L1J207).
T1 construct: gene GUITHDRAFT_111593; 295 residues, C-terminal 8xHis tag, codon-optimised gene, expressed in Pichia pastoris SMD1168H cells; also purified in DDM
In words: light-induced pH change of yeast cell suspension (pH electrode). Format: cell-based. The note with it: 300 mM NaNO3; 530 nm LED 10 mW/cm^2; initial pH about 5; about 16 °C.

In experiment [2] the target is T1, GtACR1. In words: visible absorption spectrum of purified protein. It counts as binding. The note with it: covalent (retinal protonated Schiff base); 10 mM MOPS pH 7, 1 M NaCl, 0.05% DDM.

T1 sequence (L1J207 entry or part of it): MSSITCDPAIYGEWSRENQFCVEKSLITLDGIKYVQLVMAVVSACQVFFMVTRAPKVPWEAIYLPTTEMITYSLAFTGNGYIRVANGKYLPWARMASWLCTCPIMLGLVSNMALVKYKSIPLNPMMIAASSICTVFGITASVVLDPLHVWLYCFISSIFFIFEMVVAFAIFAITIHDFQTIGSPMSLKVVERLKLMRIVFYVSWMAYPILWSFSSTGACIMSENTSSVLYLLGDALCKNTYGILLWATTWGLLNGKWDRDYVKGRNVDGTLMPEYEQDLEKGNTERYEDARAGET

Turning to `O=[N+]([O-])O` [NO3^−], at GtACR1 [1], the “light-induced pH change of yeast cell suspension (pH electrode)” value was “significant transport activities were obtained for the anions except for F^− and Asp^−”.
Turning to `CC1=C(/C=C/C(C)=C/C=C/C(C)=C/C=O)C(C)(C)CCC1` [all-trans-retinal], the “visible absorption spectrum of purified protein” value on GtACR1 [2] is “Visible absorption spectrum of purified GtACR1”.
